From PMC12207802, “Discovery of coniferaldehyde as an inhibitor of caseinolytic protease to combat Staphylococcus aureus infections” (Molecular Medicine, 2025)

Target: T1, Caseinolytic protease P (ClpP) (Staphylococcus aureus, UniProt Q2G036)
T1 construct: clpP of S. aureus NCTC 8325-4 in pET-28a (+), Ni-purified
Test: fluorogenic Suc-Leu-Tyr-AMC peptidase assay with purified ClpP; supported by fluorescence quenching (Ka), CETSA, CD and ClpXP GFP-SsrA degradation
Type: biochemical

T1 sequence (Q2G036 whole entry): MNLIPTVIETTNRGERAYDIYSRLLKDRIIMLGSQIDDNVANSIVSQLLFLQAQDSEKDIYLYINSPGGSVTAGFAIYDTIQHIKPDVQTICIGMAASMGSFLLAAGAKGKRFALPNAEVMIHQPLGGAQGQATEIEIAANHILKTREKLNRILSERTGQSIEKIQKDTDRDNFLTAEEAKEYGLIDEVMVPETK

Question: How did the IC50 turn out when `COc1cc(/C=C/C=O)ccc1O` [CA, 4-hydroxy-3-methoxycinnamaldehyde] was run?
Answer: The IC50 was 103 µM.
